“Also recorded” adds a separate entry of the source. Like-named read-outs stand apart in the source and are kept apart here. Each block holds one compound with its values, some of them ahead of it.
Assays:
[1] = diprotonated form; acidic pH; cited from earlier work
[2] = U-tube model membrane transport, 5-nitroisophthalate; conditions: carrier 0.1 mM in dichloromethane; source 10 mM each of three acids, pH 7.2; receiving pH 7; 24-26 °C; error ±10%
Method: (§1) To illustrate the binding of dicarboxylate anions by sapphyrin dimers, transport studies were carried out utilizing a standard U-tube model membrane system. Transport experiments were performed using a glass U-tube at 24°-26° C. Conditions: Source phase: 1 mL of a 1:1:1 ratio of 4-nitrophthalic acid, 5-nitroisophthalic acid and nitroterephthalic acid (10 mM of each) at pH 7.2 (adjusted by the addition of NaOH). Membrane (6 mL); carrier (1a or 23): 0.1 mM in dichloromethane. Receiving phase: 1 mL of H2 O, pH 7.0. The release of the dicarboxylate dianions into the receiving phase was monitored as a function of time via HPLC product analysis achieved using adenosine or uridine as the internal standards. In all cases, control experiments were performed in the absence of carrier. Error is within ±10%.

[3] = Binding constant titration in methanol
From the text: (§2) Quantitative assessments of dicarboxylate binding efficacy in methanol were made using standard spectroscopic techniques. In general, ^1 H NMR methods were employed, with the observed changes in the ^1 H NMR chemical shifts of the aromatic protons of the carboxyl-containing substrate (kept constant in the mM concentration range) being monitored as a function of increased receptor concentration. In some instances, well-resolved shifts could not be observed in the appropriate ^1 H NMR spectra. Here, either visible spectroscopic titration procedures were used or deuterated substrates were employed such that the binding process could be followed by ^2 H NMR.
(§3) More specifically, binding studies were effected by means of ^1 H NMR (General Electric QE-300), ^2 H NMR (Bruker AM-500) and Vis (Beckman DU 640) titrations and were carried out at 293 K. using methanol as the solvent. Methanol-d4 was used for the ^1 HNMR titrations and non-deuterated methanol was used for the ^2 H NMR analyses. For both sets of NMR titrations, the substrate concentration was held constant and the receptor concentration varied. The change in the chemical shifts of the aromatic hydrogen/deuterium atoms of the substrates were then followed and used as a way of monitoring, in a relative way, the concentration of the bound and unbound species. […]

[4] = U-tube model membrane transport, 4-nitrophthalate; conditions: carrier 0.1 mM in dichloromethane; source 10 mM each of three acids, pH 7.2; receiving pH 7; 24-26 °C; error ±10%
Method: as §1

[5] = Carboxylate binding, summary statements
From the text: as §2, §3

[6] = Binding constant titration in methanol; conditions: for Kd: methanol, 293 K, 23 as bis HCl salt, read-out: K1, K2 (converted)
From the text: as §2
(§4) More specifically, binding studies were effected by means of ^1 H NMR (General Electric QE-300), ^2 H NMR (Bruker AM-500) and Vis (Beckman DU 640) titrations and were carried out at 293 K. using methanol as the solvent. Methanol-d4 was used for the ^1 HNMR titrations and non-deuterated methanol was used for the ^2 H NMR analyses. For both sets of NMR titrations, the substrate concentration was held constant and the receptor concentration varied. The change in the chemical shifts of the aromatic hydrogen/deuterium atoms of the substrates were then followed and used as a way of monitoring, in a relative way, the concentration of the bound and unbound species. For the Vis titrations, the receptor concentration was held constant and the substrate concentration varied. There, the change in absorption of the Soret-like band of receptor 23 was followed. Receptor 23 was used in the form of its bis-HCl salt, 23-2HCl. This salt was prepared by washing a dichloromethane solution of 23 (in its free-base form) three times with independent portions of an aqueous pH 6 solution of HCl, followed by 1) drying over Na2 SO4, 2) evaporative removal of solvent and 3) drying in vacuo. Substrates were used as their trimethylammonium salts. They were prepared by dissolving the relevant dicarboxylic acid in methanol and then bubbling with trimethylamine gas for 10 min. […]

[7] = Binding constant titration in methanol; remark: listed apart in the source
From the text: as §2, §3

[8] = Binding constant titration in methanol; remark: listed apart in the source
From the text: as §2, §3

[9] = Binding constant titration in methanol; conditions: for Ka: methanol, 293 K, 23 as bis HCl salt
From the text: as §2, §4

[10] = Binding constant titration in methanol; conditions: for Kd: binding constant, 1H NMR, methanol, 293 K, 23 as bis HCl salt
From the text: as §2, §4

[11] = U-tube model membrane transport, nitroterephthalate
Method: as §1

[12] = U-tube model membrane transport of dicarboxylates, summary; conditions: neutral pH
Method: as §1

[13] = Binding constant titration in methanol; remark: listed apart in the source
From the text: as §2, §3

[14] = Binding constant titration in methanol; remark: listed apart in the source
From the text: as §2, §3

[15] = Protonation state of sapphyrin; assay type: physicochemical
[16] = test system: DNA; test: DNA binding of unmodified sapphyrin
[17] = Vis spectroscopy, methanol, 293 K, 23 as bis HCl salt
[18] = relative to the worst bound substrate, oxalate

SMILES: CCC1=C(C)c2cc3[nH]c(c(C)c3CC)c3[nH]c(cc4nc(cc5[nH]c(cc1n2)c(CC)c5CC)C(CC)=C4C)c(CC)c3C [3,8,12,13,17,22-hexaethyl-2,7,18,23-tetramethylsapphyrin]
- carrier for through-membrane transport [1]: efficient carrier

- Ka [3, 17]: 450 M⁻¹
- Selectivity [3, 18]: 1.7
- Kd ([6]; 1H NMR): 725 µM
- Kd ([6]; 2H NMR): 654 µM
- Selectivity [6, 18]: 5.6
- Ka [7, 17]: 260 M⁻¹
- Selectivity [7, 18]: 1
- Ka [8, 17]: 5 300 M^-1
- Selectivity [8, 18]: 20.4
- Ka ([9]; Vis spectroscopy): 2 500 M^-1
- Ka ([9]; first value, footnote printed c): 2 400 M^-1
- Selectivity [9, 18]: 9.4
- Kd ([10]; read-out: K1 (converted)): 3230 µM
- Kd ([10]; read-out: K2 (converted)): 3570 µM
- Selectivity [10, 18]: 1.2
- Ka [13, 17]: 9 100 M^-1
- Selectivity [13, 18]: 35.0
- Ka ([14]; 2H NMR, methanol, 293 K, 23 as bis HCl salt): 4 600 M^-1
- Selectivity [14, 18]: 17.7
SMILES: CCC1=C(C)c2cc3[nH]c(c(C)c3CC)c3[nH]c(cc4nc(cc5[nH]c(cc1n2)c(C)c5CCC(=O)NCCCNC(=O)CCc1c(C)c2cc5nc(cc6[nH]c(c(C)c6CC)c6[nH]c(cc7nc(cc1[nH]2)C(CC)=C7C)c(CC)c6C)C(C)=C5CC)C(CC)=C4C)c(CC)c3C [Compound 23, 1,3-bis[12-aminocarbonylethyl-(3,8,17,22-tetraethyl-2,7,13,18,23-pentamethylsapphyrin)]propane]
- Initial rate of transport kT, meta [2]: 2.926 10^-10 mol/cm^2 · h
- Initial rate of transport kT, ortho [4]: 2.190 10^-10 mol/cm^2 · h
- Affinity and selectivity for carboxylates (in words) [5]: little affinity for monocarboxylate-derived substrates; also recorded: very good affinities for certain dicarboxylates; also recorded: preference for linear over bent substrates and aromatic over aliphatic substrates
- Initial rate of transport kT, para ([11]; carrier 0.1 mM in dichloromethane, source 10 mM each of three acids, pH 7.2, receiving pH 7, 24-26 °C, error ±10%): 6.803 10^-10 mol/cm^2 · h
- Transport rate of nitroterephthalate relative to 4-nitrophthalate ([11]; direct competition experiments): three times faster
- Carrier efficacy for dicarboxylates [12]: acts as an efficient carrier for a range of dicarboxylates

- pH range in which sapphyrin remains monoprotonated [15]: 3.5-10 pH
- mode of DNA binding [16]: not intercalation or groove binding
- Kd ([16]; unmodified sapphyrin, read-out: binding constant for DNA): ~1 µM
SMILES: CCc1c(CC)c2cc3nc(cc4[nH]c(c(C)c4CC)c4[nH]c(cc5nc(cc1[nH]2)C(CCC(=O)N(CCO)CCO)=C5C)c(CC)c4C)C(C)=C3CCC(=O)N(CCO)CCO [sapphyrin]
